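Compound exposure: 48 hours, 5 concentrations, 96-well plates. At the GI50, growth is halved.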 Calls of active or inactive are those of the source. No stated cut-off is given here; in the data, active = GI50 up to about 1.1 µM and inactive = higher.
Experiments:
Test in all cases: growth of human tumour cells (NCI), 48 h
[1] = tested on: HCT-116
[2] = tested on: T47D
[3] = tested on: SK-MEL-5
[4] = tested on: A498
[5] = tested on: HOP-62
[6] = tested on: MOLT-4
[7] = tested on: KM12
[8] = tested on: EKVX
[9] = tested on: SK-MEL-28
[10] = tested on: HCT-15
[11] = tested on: OVCAR-5
[12] = tested on: NCI-H23
[13] = tested on: SF-295
[14] = tested on: SW-620
[15] = tested on: HOP-92
[16] = tested on: UACC-257
[17] = tested on: SF-539
[18] = tested on: CCRF-CEM
[19] = tested on: OVCAR-3
[20] = tested on: LOX IMVI

CN1CCN(CC(=O)Nc2cccc3ccccc23)CC1
GI50 [1]: > 100 µM (inactive)
GI50 [2]: > 100 µM (inactive)
GI50 [3]: > 100 µM (inactive)
GI50 [4]: > 100 µM (inactive)
GI50 [5]: > 100 µM (inactive)
GI50 [6]: > 100 µM (inactive)
GI50 [7]: > 100 µM (inactive)
GI50 [8]: > 100 µM (inactive)
GI50 [9]: > 100 µM (inactive)
GI50 [10]: > 100 µM
GI50 [11]: > 100 µM (inactive)
GI50 [12]: > 100 µM (inactive)
GI50 [13]: > 100 µM (inactive)
GI50 [14]: > 100 µM (inactive)
GI50 [15]: > 100 µM (inactive)
GI50 [16]: > 100 µM (inactive)
GI50 [17]: > 100 µM (inactive)
GI50 [18]: > 100 µM (inactive)
GI50 [19]: > 100 µM (inactive)
GI50 [20]: > 100 µM (inactive)

COc1cc2cc3c4c(cc(OC)c(OC)c4c2cc1OC)CCN3C
GI50 [1]: 5.96 µM (inactive)
GI50 [2]: 1.67 µM (inactive)
GI50 [3]: 6.03 µM (inactive)
GI50 [4]: 6.84 µM (inactive)
GI50 [5]: 11.9 µM (inactive)
GI50 [6]: 2.41 µM (inactive)
GI50 [7]: 11 µM (inactive)
GI50 [8]: 15.3 µM (inactive)
GI50 [9]: 18.1 µM (inactive)
GI50 [10]: 6.84 µM
GI50 [11]: 21 µM (inactive)
GI50 [12]: 12.8 µM (inactive)
GI50 [13]: 3.07 µM (inactive)
GI50 [14]: 7.36 µM (inactive)
GI50 [15]: 9.93 µM (inactive)
GI50 [16]: 9.12 µM (inactive)
GI50 [17]: 9.25 µM (inactive)
GI50 [18]: 1.36 µM (inactive)
GI50 [19]: 8.05 µM (inactive)
GI50 [20]: 5.25 µM (inactive)

CC(=O)OC1(C)C(=O)OC/C2=C/CN(C)CCC(OC(=O)C(O)(C(C)Cl)CC1C)C2=O.c1ccccc1 (stereo not given)
GI50 [1]: > 100 µM (inactive)
GI50 [2]: > 100 µM (inactive)
GI50 [3]: > 100 µM (inactive)
GI50 [4]: > 100 µM (inactive)
GI50 [5]: > 100 µM (inactive)
GI50 [6]: > 100 µM (inactive)
GI50 [7]: > 100 µM (inactive)
GI50 [8]: > 100 µM (inactive)
GI50 [9]: > 100 µM (inactive)
GI50 [10]: > 100 µM
GI50 [11]: > 100 µM (inactive)
GI50 [12]: > 100 µM (inactive)
GI50 [13]: > 100 µM (inactive)
GI50 [14]: > 100 µM (inactive)
GI50 [15]: > 100 µM (inactive)
GI50 [16]: > 100 µM (inactive)
GI50 [17]: > 100 µM (inactive)
GI50 [18]: > 100 µM (inactive)
GI50 [19]: > 100 µM (inactive)
GI50 [20]: > 100 µM (inactive)

CC1=C(C(=O)Nc2ccccc2C)C(c2ccc(C3C(C(=O)Nc4ccccc4C)=C(C)NC(C)=C3C(=O)Nc3ccccc3C)cc2)C(C(=O)Nc2ccccc2C)=C(C)N1
GI50 [1]: 2.21 µM (inactive)
GI50 [2]: 4.24 µM (inactive)
GI50 [3]: 12.1 µM (inactive)
GI50 [4]: 15.5 µM (inactive)
GI50 [5]: 21.1 µM (inactive)
GI50 [6]: 2.48 µM (inactive)
GI50 [7]: 2.16 µM (inactive)
GI50 [8]: 7.31 µM (inactive)
GI50 [9]: 2.04 µM (inactive)
GI50 [10]: 9.4 µM
GI50 [11]: 14.1 µM (inactive)
GI50 [12]: 3.21 µM (inactive)
GI50 [13]: 4.57 µM (inactive)
GI50 [14]: 2.49 µM (inactive)
GI50 [15]: 8.38 µM (inactive)
GI50 [16]: 2.8 µM (inactive)
GI50 [17]: 4.44 µM (inactive)
GI50 [18]: 1.95 µM (inactive)
GI50 [19]: 6.67 µM (inactive)
GI50 [20]: 1.63 µM (inactive)

CCCCCCCCCCCCNC(=O)CCC(NC(=O)c1ccc(N(C)Cc2cnc3nc(N)nc(N)c3n2)cc1)C(=O)NCCCCCCCCCCCC (stereo not given)
GI50 [1]: 26.6 µM (inactive)
GI50 [2]: 24.4 µM (inactive)
GI50 [3]: > 100 µM (inactive)
GI50 [4]: 42.8 µM (inactive)
GI50 [5]: 23.6 µM (inactive)
GI50 [6]: > 100 µM (inactive)
GI50 [7]: 46.7 µM (inactive)
GI50 [8]: > 100 µM (inactive)
GI50 [9]: 43.3 µM (inactive)
GI50 [10]: > 100 µM
GI50 [11]: > 100 µM (inactive)
GI50 [12]: 53.3 µM (inactive)
GI50 [13]: 25.4 µM (inactive)
GI50 [14]: 29.6 µM (inactive)
GI50 [15]: 9.44 µM (inactive)
GI50 [16]: > 100 µM (inactive)
GI50 [17]: > 100 µM (inactive)
GI50 [18]: 25.8 µM (inactive)
GI50 [19]: 31.5 µM (inactive)
GI50 [20]: 17 µM (inactive)

C=C1C(=O)OC2/C=C(\C)C(O)CC(O)C(C)(O)CC(OC(=O)/C(C)=C/C)C12 (stereo not given)
GI50 [1]: 32.9 µM (inactive)
GI50 [2]: 65.5 µM (inactive)
GI50 [3]: 36.7 µM (inactive)
GI50 [4]: 42.2 µM (inactive)
GI50 [5]: > 100 µM (inactive)
GI50 [6]: 1.34 µM (inactive)
GI50 [7]: 29.6 µM (inactive)
GI50 [8]: 43.1 µM (inactive)
GI50 [9]: 47.9 µM (inactive)
GI50 [10]: 28.4 µM
GI50 [11]: > 73.8 µM (inactive)
GI50 [12]: 46.9 µM (inactive)
GI50 [13]: 55.1 µM (inactive)
GI50 [14]: 35.6 µM (inactive)
GI50 [15]: 41.9 µM (inactive)
GI50 [16]: 83.8 µM (inactive)
GI50 [17]: 42.4 µM (inactive)
GI50 [18]: 34.3 µM (inactive)
GI50 [19]: 44.2 µM (inactive)
GI50 [20]: 32.3 µM (inactive)

C=C1OC2OC(C)C(NC(=O)OCC(Cl)(Cl)Cl)C(OC(C)=O)C2O1 (stereo not given)
GI50 [1]: > 100 µM (inactive)
GI50 [2]: > 100 µM (inactive)
GI50 [3]: > 100 µM (inactive)
GI50 [4]: > 100 µM (inactive)
GI50 [5]: > 100 µM (inactive)
GI50 [6]: > 100 µM (inactive)
GI50 [7]: > 100 µM (inactive)
GI50 [8]: > 100 µM (inactive)
GI50 [9]: > 100 µM (inactive)
GI50 [10]: > 100 µM
GI50 [11]: > 100 µM (inactive)
GI50 [12]: > 100 µM (inactive)
GI50 [13]: > 100 µM (inactive)
GI50 [14]: > 100 µM (inactive)
GI50 [15]: > 100 µM (inactive)
GI50 [16]: > 100 µM (inactive)
GI50 [17]: > 100 µM (inactive)
GI50 [18]: > 100 µM (inactive)
GI50 [19]: > 100 µM (inactive)
GI50 [20]: > 100 µM (inactive)

CC(=O)c1sc2[n+](c1C)C(=O)/C(=C\c1ccccc1Cl)S2
GI50 [1]: 20.7 µM (inactive)
GI50 [2]: 15.7 µM (inactive)
GI50 [3]: 11.3 µM (inactive)
GI50 [4]: 29.7 µM (inactive)
GI50 [5]: 22.8 µM (inactive)
GI50 [6]: 22.4 µM (inactive)
GI50 [7]: 17.3 µM (inactive)
GI50 [8]: 26.8 µM (inactive)
GI50 [9]: 16.7 µM (inactive)
GI50 [10]: 14.1 µM
GI50 [11]: 24.3 µM (inactive)
GI50 [12]: 19.3 µM (inactive)
GI50 [13]: 16 µM (inactive)
GI50 [14]: 17.3 µM (inactive)
GI50 [15]: 56.2 µM (inactive)
GI50 [16]: 19.4 µM (inactive)
GI50 [17]: 21.8 µM (inactive)
GI50 [18]: 27.6 µM (inactive)
GI50 [19]: 18 µM (inactive)
GI50 [20]: 18 µM (inactive)

CC(C)C[C@H](NC(=O)[C@H](Cc1ccccc1)NC(=O)CCc1ccccc1)B(O)O
GI50 [1]: < 0.01 µM (active)
GI50 [2]: < 0.01 µM (active)
GI50 [3]: < 0.01 µM (active)
GI50 [4]: < 0.01 µM (active)
GI50 [5]: < 0.01 µM (active)
GI50 [6]: < 0.01 µM (active)
GI50 [7]: < 0.01 µM (active)
GI50 [8]: < 0.01 µM (active)
GI50 [9]: < 0.01 µM (active)
GI50 [10]: < 0.01 µM
GI50 [11]: < 0.01 µM (active)
GI50 [12]: < 0.01 µM (active)
GI50 [13]: < 0.01 µM (active)
GI50 [14]: < 0.01 µM (active)
GI50 [15]: < 0.01 µM (active)
GI50 [16]: < 0.01 µM (active)
GI50 [17]: < 0.01 µM (active)
GI50 [18]: < 0.01 µM (active)
GI50 [19]: < 0.01 µM (active)
GI50 [20]: < 0.01 µM (active)

COc1ccc(-c2oc3ccc(C)cc3c(=O)c2O)cc1
GI50 [1]: 52 µM (inactive)
GI50 [2]: > 100 µM (inactive)
GI50 [3]: > 100 µM (inactive)
GI50 [4]: > 100 µM (inactive)
GI50 [5]: > 100 µM (inactive)
GI50 [6]: 58.6 µM (inactive)
GI50 [7]: > 100 µM (inactive)
GI50 [8]: > 100 µM (inactive)
GI50 [9]: > 100 µM (inactive)
GI50 [10]: 24.5 µM
GI50 [11]: > 100 µM (inactive)
GI50 [12]: > 100 µM (inactive)
GI50 [13]: > 100 µM (inactive)
GI50 [14]: > 100 µM (inactive)
GI50 [15]: > 100 µM (inactive)
GI50 [16]: > 100 µM (inactive)
GI50 [17]: 43.4 µM (inactive)
GI50 [18]: > 100 µM (inactive)
GI50 [19]: > 100 µM (inactive)
GI50 [20]: > 100 µM (inactive)
